Experimental data published in patent publication US10287255B2, “Compounds as histone deacetylase 6 inhibitors and pharmaceutical compositions comprising the same” (CHONG KUN DANG PHARMACEUTICAL CORP., priority 2014, dated 2019).

Key:
[1] = molecular target: T1, human recombinant HDAC1 (Homo sapiens, UniProt Q13547); assay: HDAC1 enzyme activity inhibition assay (in vitro, fluorimetric); format: biochemical; conditions: human recombinant HDAC1, fluorimetric kit, 30° C. 60 minutes
T1 construct: purchased Enzo Life Science BML-SE456
T1 sequence (Q13547 whole entry): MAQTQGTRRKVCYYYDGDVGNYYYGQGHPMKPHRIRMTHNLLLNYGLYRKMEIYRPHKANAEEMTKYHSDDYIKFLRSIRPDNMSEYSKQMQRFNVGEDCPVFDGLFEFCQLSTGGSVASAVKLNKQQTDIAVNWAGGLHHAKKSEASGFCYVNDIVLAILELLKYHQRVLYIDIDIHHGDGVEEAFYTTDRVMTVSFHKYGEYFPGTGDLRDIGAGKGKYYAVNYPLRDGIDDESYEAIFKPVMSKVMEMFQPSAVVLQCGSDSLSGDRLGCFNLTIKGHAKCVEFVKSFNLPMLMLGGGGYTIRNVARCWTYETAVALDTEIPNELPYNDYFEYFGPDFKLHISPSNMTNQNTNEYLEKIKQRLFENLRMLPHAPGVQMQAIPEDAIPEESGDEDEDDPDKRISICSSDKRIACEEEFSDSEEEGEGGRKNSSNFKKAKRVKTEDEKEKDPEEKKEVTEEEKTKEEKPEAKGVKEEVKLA
Summary of the method: (§1)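 IC50 values derive from fluorescence (Ex 360, Em 460) after developer treatment (30 min) of reactions of recombinant human HDAC1 or HDAC6 with 10 μM Fluor de Lys-SIRT1 substrate (60 min, 30 °C). Compounds were serially diluted 5-fold; 0.3 μg enzyme was used for HDAC1, with HDAC6 tested identically.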

[2] = molecular target: T2, human recombinant HDAC6 (Homo sapiens, UniProt Q9UBN7); assay: HDAC6 enzyme activity inhibition assay (in vitro, fluorimetric); format: biochemical; conditions: for HDAC6 selectivity (fold): HDAC6 selectivity over HDAC1; for IC50: human recombinant HDAC6, fluorimetric kit, same protocol as HDAC1
T2 construct: purchased Calbiochem 382180
T2 sequence (Q9UBN7 1-1215): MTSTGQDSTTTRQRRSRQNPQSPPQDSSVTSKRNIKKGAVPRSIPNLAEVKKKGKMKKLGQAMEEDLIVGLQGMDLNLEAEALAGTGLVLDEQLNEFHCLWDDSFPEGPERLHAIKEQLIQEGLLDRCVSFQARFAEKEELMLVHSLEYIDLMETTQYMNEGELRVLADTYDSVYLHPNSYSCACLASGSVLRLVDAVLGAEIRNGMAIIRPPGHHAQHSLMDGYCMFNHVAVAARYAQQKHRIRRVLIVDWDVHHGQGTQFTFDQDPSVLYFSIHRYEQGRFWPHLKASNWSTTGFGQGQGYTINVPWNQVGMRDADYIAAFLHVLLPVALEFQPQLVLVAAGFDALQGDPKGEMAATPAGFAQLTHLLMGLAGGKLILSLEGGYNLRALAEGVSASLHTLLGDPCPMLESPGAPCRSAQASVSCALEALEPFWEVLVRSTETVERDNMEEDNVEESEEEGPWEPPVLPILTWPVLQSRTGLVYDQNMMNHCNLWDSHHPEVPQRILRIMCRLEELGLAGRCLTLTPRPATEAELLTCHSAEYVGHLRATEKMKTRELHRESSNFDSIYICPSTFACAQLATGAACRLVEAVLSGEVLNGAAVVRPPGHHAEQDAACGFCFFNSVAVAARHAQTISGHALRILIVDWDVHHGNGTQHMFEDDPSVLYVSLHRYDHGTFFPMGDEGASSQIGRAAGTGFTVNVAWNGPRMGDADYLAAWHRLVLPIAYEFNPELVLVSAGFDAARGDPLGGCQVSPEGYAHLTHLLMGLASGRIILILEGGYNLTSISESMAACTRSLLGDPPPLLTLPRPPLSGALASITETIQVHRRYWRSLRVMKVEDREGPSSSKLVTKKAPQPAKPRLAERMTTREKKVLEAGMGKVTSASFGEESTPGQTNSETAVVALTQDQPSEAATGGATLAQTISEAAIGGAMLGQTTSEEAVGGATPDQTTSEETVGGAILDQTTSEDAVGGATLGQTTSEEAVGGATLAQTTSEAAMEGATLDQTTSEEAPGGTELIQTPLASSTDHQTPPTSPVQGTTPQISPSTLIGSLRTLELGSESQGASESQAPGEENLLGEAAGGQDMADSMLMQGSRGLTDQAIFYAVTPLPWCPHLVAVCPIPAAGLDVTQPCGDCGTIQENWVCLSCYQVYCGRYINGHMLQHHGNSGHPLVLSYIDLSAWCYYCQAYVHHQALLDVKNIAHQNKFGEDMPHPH
Summary of the method: as §1

| IC50 [1] [nM] | HDAC6 selectivity (fold) [2] [fold] | IC50 [2] [nM] | SMILES |
| --- | --- | --- | --- |
| > 10000 | >172 | 58 | C[C@@H]1CN(Cc2ccc(C(=O)NO)cc2)C[C@H](C)N1C(=O)c1ccccc1C1=CCOCC1 [Compound 326, 4-(((3R,5S)-4-(2-(3,6-dihydro-2H-pyran-4-yl)benzoyl)-3,5-dimethylpiperazin-1-yl)methyl)-N-hydroxybenzamide] |
| > 10000 | >43 | 235 | C[C@@H]1CN(Cc2ccc(C(=O)NO)cc2)C[C@H](C)N1Cc1ccccc1-c1ccco1 [Compound 327, 4-(((3R,5S)-4-(2-(furan-2-yl)benzyl)-3,5-dimethylpiperazin-1-yl)methyl)-N-hydroxybenzamide] |
| 18700 | 183 | 102 | C[C@@H]1CN(Cc2ccc(C(=O)NO)cc2)C[C@H](C)N1Cc1ccccc1-c1ccoc1 [Compound 328, 4-(((3R,5S)-4-(2-(furan-3-yl)benzyl)-3,5-dimethylpiperazin-1-yl)methyl)-N-hydroxybenzamide] |
| 14600 | 280 | 52 | C[C@@H]1CN(Cc2ccc(C(=O)NO)cc2)C[C@H](C)N1Cc1ccccc1-c1ccncc1 [Compound 329, 4-(((3R,5S)-3,5-dimethyl-4-(2-(pyridin-4-yl)benzyl)piperazin-1-yl)methyl)-N-hydroxybenzamide] |
| 18000 | 749 | 24 | C[C@@H]1CN(Cc2ccc(C(=O)NO)cc2)C[C@H](C)N1Cc1ccccc1-c1cccnc1 [Compound 330, 4-(((3R,5S)-3,5-dimethyl-4-(2-(pyridin-3-yl)benzyl)piperazin-1-yl)methyl)-N-hydroxybenzamide] |
| 21900 | 207 | 106 | C[C@@H]1CN(Cc2ccc(C(=O)NO)cc2)C[C@H](C)N1Cc1ccccc1C1=CCOCC1 [Compound 332, 4-(((3R,5S)-4-(2-(3,6-dihydro-2H-pyran-4-yl)benzyl)-3,5-dimethylpiperazin-1-yl)methyl)-N-hydroxybenzamide] |
| 1600 | 3 | 606 | C[C@@H]1CN(Cc2ccc(C(=O)NO)cc2)C[C@H](C)N1C(=O)c1ccc(-c2ccco2)cc1 [Compound 340, 4-(((3R,5S)-4-(4-(furan-2-yl)benzoyl)-3,5-dimethylpiperazin-1-yl)methyl)-N-hydroxybenzamide] |
| 8700 | 456 | 19 | C[C@@H]1CN(Cc2ccc(C(=O)NO)cc2)C[C@H](C)N1Cc1cccc(-c2ccco2)c1 [Compound 342, 4-(((3R,5S)-4-(3-(furan-2-yl)benzyl)-3,5-dimethylpiperazin-1-yl)methyl)-N-hydroxybenzamide] |
| 8800 | 328 | 27 | C[C@@H]1CN(Cc2ccc(C(=O)NO)cc2)C[C@H](C)N1Cc1cccc(-c2ccoc2)c1 [Compound 343, 4-(((3R,5S)-4-(3-(furan-3-yl)benzyl)-3,5-dimethylpiperazin-1-yl)methyl)-N-hydroxybenzamide] |
| 5800 | 481 | 12 | C[C@@H]1CN(Cc2ccc(C(=O)NO)cc2)C[C@H](C)N1Cc1cccc(-c2cccnc2)c1 [Compound 344, 4-(((3R,5S)-3,5-dimethyl-4-(3-(pyridin-3-yl)benzyl)piperazin-1-yl)methyl)-N-hydroxybenzamide] |
| 5500 | 341 | 16 | C[C@@H]1CN(Cc2ccc(C(=O)NO)cc2)C[C@H](C)N1Cc1cccc(-c2ccncc2)c1 [Compound 345, 4-(((3R,5S)-3,5-dimethyl-4-(3-(pyridin-4-yl)benzyl)piperazin-1-yl)methyl)-N-hydroxybenzamide] |
| 8300 | 332 | 25 | C[C@@H]1CN(Cc2ccc(C(=O)NO)cc2)C[C@H](C)N1Cc1cccc(C2=CCOCC2)c1 [Compound 346, 4-(((3R,5S)-4-(3-(3,6-dihydro-2H-pyran-4-yl)benzyl)-3,5-dimethylpiperazin-1-yl)methyl)-N-hydroxybenzamide] |
| > 10000 | >25 | 408 | C[C@@H]1CN(Cc2ccc(C(=O)NO)cc2)C[C@H](C)N1Cc1cccc(C2=CCC(C)(C)CC2)c1 [Compound 347, 4-(((3R,5S)-4-((4′,4′-dimethyl-2′,3′,4′,5′-tetrahydro-[1,1′-biphenyl]-3-yl)methyl)-3,5-dimethylpiperazin-1-yl)methyl)-N-hydroxybenzamide] |
| 4700 | 6 | 843 | C[C@@H]1CN(Cc2ccccc2-c2ccoc2)C[C@H](C)N1Cc1ccc(C(=O)NO)cc1 [Compound 348, 4-(((2S,6R)-4-(2-(furan-3-yl)benzyl)-2,6-dimethylpiperazin-1-yl)methyl)-N-hydroxybenzamide] |
| 5000 | 1000 | 5 | C[C@@H]1CN(Cc2ccccc2-c2cccnc2)C[C@H](C)N1Cc1ccc(C(=O)NO)cc1 [Compound 349, 4-(((2S,6R)-2,6-dimethyl-4-(2-(pyridin-3-yl)benzyl)piperazin-1-yl)methyl)-N-hydroxybenzamide] |
| 3300 | 17 | 194 | C[C@@H]1CN(Cc2ccccc2-c2ccncc2)C[C@H](C)N1Cc1ccc(C(=O)NO)cc1 [Compound 350, 4-(((2S,6R)-2,6-dimethyl-4-(2-(pyridin-4-yl)benzyl)piperazin-1-yl)methyl)-N-hydroxybenzamide] |
| 5100 | 15 | 351 | C[C@@H]1CN(Cc2ccccc2C2=CCOCC2)C[C@H](C)N1Cc1ccc(C(=O)NO)cc1 [Compound 351, 4-(((2S,6R)-4-(2-(3,6-dihydro-2H-pyran-4-yl)benzyl)-2,6-dimethylpiperazin-1-yl)methyl)-N-hydroxybenzamide] |
| 13800 | >13 | 1060 | C[C@@H]1CN(Cc2ccccc2C2=CCC(C)(C)CC2)C[C@H](C)N1Cc1ccc(C(=O)NO)cc1 [Compound 352, 4-(((2S,6R)-4-((4′,4′-dimethyl-2′,3′,4′,5′-tetrahydro-[1,1′-biphenyl]-2-yl)methyl)-2,6-dimethylpiperazin-1-yl)methyl)-N-hydroxybenzamide] |
| > 10000 | >2000 | 5 | C[C@@H]1CN(Cc2ccc(C(=O)NO)cc2)C[C@H](C)N1Cc1cocn1 [Compound 354, 4-(((3R,5S)-3,5-dimethyl-4-(oxazol-4-ylmethyl)piperazin-1-yl)methyl)-N-hydroxybenzamide] |
| 21000 | 20 | 1060 | C[C@@H]1CN(Cc2ccc(C(=O)NO)cc2)C[C@H](C)N1Cc1cncnc1 [Compound 355, 4-(((3R,5S)-3,5-dimethyl-4-(pyrimidin-5-ylmethyl)piperazin-1-yl)methyl)-N-hydroxybenzamide] |
| 12300 | 558 | 22 | C[C@@H]1CN(Cc2ccc(C(=O)NO)cc2)C[C@H](C)N1Cc1cccc(CN2CCOCC2)c1 [Compound 356, 4-(((3R,5S)-3,5-dimethyl-4-(3-(morpholinomethyl)benzyl)piperazin-1-yl)methyl)-N-hydroxybenzamide] |

| SMILES | IC50 [1] [nM] | HDAC6 selectivity (fold) [2] [fold] | IC50 [2] [nM] |
| --- | --- | --- | --- |
| C[C@@H]1CN(Cc2ccc(/C=C/C(=O)NO)cc2)C[C@H](C)N1C(=O)Cc1ccccc1 [Compound 323, (E)-3-(4-(((3R,5S)-3,5-dimethyl-4-(2-phenylacetyl)piperazin-1-yl)methyl)phenyl)-N-hydroxyacrylamide] | > 10000 | >11 | 921 |
